Measurements: US20090246269A1, “IDENTIFICATION AND USE OF GPRC VARIANTS IN THE TREATMENT AND DIAGNOSIS OF PARKINSON'S DISEASE” (priority 2006, published 2009)

Target: T1, BDKRB2 reference form (Homo sapiens, UniProt P30411)
T1 construct: expressed in transfected cells; host or cells: CHO-K1
T1 sequence (P30411 1-391): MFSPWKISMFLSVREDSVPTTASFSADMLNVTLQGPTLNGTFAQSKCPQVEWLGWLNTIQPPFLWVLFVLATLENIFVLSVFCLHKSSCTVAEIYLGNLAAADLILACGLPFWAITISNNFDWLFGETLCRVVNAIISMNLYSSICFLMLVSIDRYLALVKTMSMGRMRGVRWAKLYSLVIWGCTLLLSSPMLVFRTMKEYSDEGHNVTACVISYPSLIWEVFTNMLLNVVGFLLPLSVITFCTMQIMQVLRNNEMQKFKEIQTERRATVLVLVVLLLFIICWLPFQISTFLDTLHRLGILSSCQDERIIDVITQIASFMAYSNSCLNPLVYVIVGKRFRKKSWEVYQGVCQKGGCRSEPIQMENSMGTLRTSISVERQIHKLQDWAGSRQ
Assay: NFAT-Firefly luciferase reporter assay (Dual-Glo) of BDKRB2 dependent signaling in transfected CHO-K1 cells
Format: cell-based
Conditions: 8 hour time-point
Description: FIG. 10: Effect of bradyzide titration on the activity of BDKRB2 reference form. CHO-K1 cells were transfected with pNFAT—Firefly Luciferase reporter, BDKBR2-pcDNA3.1 and pGL4.73 [hRenilla Luciferase/SV40]. 18 hrs after transfection, cells were treated with bradyzide at indicated concentration in 10% FBS medium for 8, 24 and 48 hrs. The Firefly luciferase reporter activity and the renilla luciferase activity were measured sequentially. BDKRB2 activity was estimated by calculating the Ratios of Firefly and Renilla Luciferase Units (RLU).
The Promega Dual-Glo™ Assay system was used to indirectly monitor BDKRB2 dependent signaling.

CN(C)CCN(C)CCNC(=O)[C@@H]1CCCN1S(=O)(=O)c1ccc(NNC(=S)NC(c2ccccc2)c2ccccc2)c([N+](=O)[O-])c1 [bradyzide]
inhibition of serum induced activity in luciferase reporter assay: inhibited
reduction of serum-induced basal BDKRB2 activity (bradyzide titration, 10% FBS medium): about 40%
